Data reported in publication PMC5059758, “Structural characterization of antibiotic self-immunity tRNA synthetase in plant tumour biocontrol agent” (Nature Communications, 2016).

How the values were obtained:
wt AgnB2 (LeuRS) [1] = target: T1, wt AgnB2 (LeuRS) (Agrobacterium radiobacter, UniProt B9JQP8); test: Aminoacylation assay, wt AgnB2; conditions: pH 7.4
Description: Aminoacylation activities of AgnB2, LeuRSAt and their mutants were measured in 50 mM HEPES buffer (pH 7.4) containing 20 mM KCl, 25 mM MgCl2, 25 mM β-ME, 4 mM ATP, 500 μM [3,4,5-^3H] L-leucine (20 μCi/mmole), 5 μg/ml inorganic pyrophosphatase, 1 μM BSA, 10 μM of active in vitro transcribed tRNA^Leu and enzymes in the range of 2–8 nM. Reactions were pre-incubated with or without substrate and/or inhibitor and then carried out at 28 °C (37 °C-LeuRSHp). Aliquots of the reaction (5–10 μl) were quenched on 3 mM filter pads (Whatman, GE Healthcare) presoaked with 5% trichloroacetic acid (TCA). The pads were washed thrice with 5% TCA and 90% ethanol at 4 °C and then dried. The amount of Leu-tRNA^Leu was then quantified using scintillation counting. Each reaction was performed in triplicate and analyzed using Kaleidagraph (for Km and kcat determinations) or GraphPad Prism software (for IC50 determination).

wt AgnB2 (LeuRS) [2] = target: T1, wt AgnB2 (LeuRS); test: ATP/PPi exchange assay (amino acid activation), AgnB2; conditions: 28 °C, pH 7.4
Description: The formation of Leu-AMP by ATP/PPi exchange assays was performed as described earlier[23][50]. Briefly, the reaction buffer contained 50 mM HEPES buffer (pH 7.4), 20 mM KCl, 10 mM MgCl2, 500 μM L-leucine, 4 mM ATP, 1 mM tetrasodium pyrophosphate (NaPPi), 10 μCi/mmol [^32P] NaPPi and 1 μM bovine serum albumin (BSA). The reaction was initiated by addition of 1–4 nM of active enzyme and incubated at 28 °C. Aliquots (5 μl each) were collected over 30 min and quenched in a 10% charcoal slurry containing 0.5% HCl and 50 μl of 200 mM sodium pyrophosphate in 1 M HCl. Liquid scintillation counting was then used to measure the amount of [^32P]-PPi incorporation into ATP that was adsorbed onto the charcoal.

[3] = system: LeuRSAt (leucyl-tRNA synthetase); conditions: aminoacylation, substrate, 28 °C, pH 7.4; cited from earlier work
LeuRSAt [4] = target: T2, LeuRSAt (Agrobacterium tumefaciens, UniProt Q8UBV2); test: ATP/PPi exchange assay (amino acid activation), LeuRSAt; assay type: biochemical, A. tumefaciens; conditions: 28 °C, pH 7.4
Description: The formation of Leu-AMP by ATP/PPi exchange assays was performed as described earlier. Briefly, the reaction buffer contained 50 mM HEPES buffer (pH 7.4), 20 mM KCl, 10 mM MgCl2, 500 μM L-leucine, 4 mM ATP, 1 mM tetrasodium pyrophosphate (NaPPi), 10 μCi/mmol [^32P] NaPPi and 1 μM bovine serum albumin (BSA). The reaction was initiated by addition of 1–4 nM of active enzyme and incubated at 28 °C. Aliquots (5 μl each) were collected over 30 min and quenched in a 10% charcoal slurry containing 0.5% HCl and 50 μl of 200 mM sodium pyrophosphate in 1 M HCl. Liquid scintillation counting was then used to measure the amount of [^32P]-PPi incorporation into ATP that was adsorbed onto the charcoal.

wt AgnB2 (LeuRS) [5] = target: T1, wt AgnB2 (LeuRS); test: Isothermal titration calorimetry, wt AgnB2; assay type: binding, Agrobacterium radiobacter K84; conditions: ITC, ligand binding to AgnB2 alone, 28 °C, pH 7.4; read-out: Kd
Description: (§1) Typically, about 4–8 μM active protein solution and a 10-fold higher ligand concentration were prepared in buffer containing 50 mM HEPES (pH 7.4), 20 mM KCl 10 mM MgCl2 and 1 mM β-ME. The titrations were carried out in triplicate at 28 °C. The data was then analyzed using Origin software (version 7) and fitted to a one-site or a two-site binding model to obtain the binding affinity (Kd), stoichiometry (N) and enthalpy (ΔH) for each complex.

LeuRSAt [6] = target: T2, LeuRSAt; test: Isothermal titration calorimetry, LeuRSAt; set-up: species or system A. tumefaciens; conditions: ITC, Leu-AMS binding to LeuRSAt
Description: as §1

[7] = aminoacylation, substrate, 28 °C

| Structure (SMILES) | Km (wt AgnB2 (LeuRS) [1]; [7]) | kcat (wt AgnB2 (LeuRS) [1]; [7]) | Km (wt AgnB2 (LeuRS) [2]; ATP-PPi exchange, substrate) | kcat (wt AgnB2 (LeuRS) [2]; ATP-PPi exchange, substrate) | Km [3] | kcat [3] | Km (LeuRSAt [4]; ATP-PPi exchange, substrate) | kcat (LeuRSAt [4]; ATP-PPi exchange, substrate) | Kd (wt AgnB2 (LeuRS) [5]) | inhibition of overall aminoacylation reaction (wt AgnB2 (LeuRS) [1]; 20 nM Leu-AMS, 2 nM wt AgnB2, 28 °C) | Kd (LeuRSAt [6]) | inhibition of amino acid activation (Leu-AMP formation) (wt AgnB2 (LeuRS) [2]; 25 nM Leu-AMS, 1 nM enzyme) | inhibition of Leu-AMP formation (LeuRSAt [4]; 25 nM Leu-AMS, 1 nM enzyme) |
| --- | --- | --- | --- | --- | --- | --- | --- | --- | --- | --- | --- | --- | --- |
| Nc1ncnc2c1ncn2[C@@H]1O[C@H](COP(=O)(O)OP(=O)(O)OP(=O)(O)O)[C@@H](O)[C@H]1O [ATP] | 95.4 ± 18.3 µM | 0.43 ± 0.02 s⁻¹ | 1050 ± 140 µM | 67 ± 8.9 s⁻¹ | 396 ± 83 µM | 0.33 ± 0.02 s⁻¹ | 357 ± 22 µM | 87 ± 1.5 s⁻¹ |  |  |  |  |  |
| CC(C)CC(N)C(=O)NS(=O)(=O)OCC1OC(n2cnc3c(N)ncnc32)C(O)C1O (stereo not drawn) [Leu-AMS, reference compound] |  |  |  |  |  |  |  |  | 4.4 nM | potently inhibited | 1.6 nM | potently inhibits | potently inhibits |
| CC(C)C[C@H](N)C(=O)O [Leucine] |  |  |  |  | 38 ± 3.2 µM | 0.38 ± 0.01 s⁻¹ |  |  |  |  |  |  |  |
